Where a SMILES comes first, the peptide text is derived from it. [ ]: non-standard residue; d: D form. The star is where a group is joined. Palmitoyl = CCCCCCCCCCCCCCCC(=O)*; Nle = CCCC[C@H](N)C(=O)O

IC50 and inhibition data for 16 compounds are collected here from patent US20110301087A1, “CRF1 RECEPTOR COMPOUNDS” (priority 2008, published 2011).

The assay addresses T1, CRF1 (Homo sapiens, UniProt P34998).
T1 construct: endogenously expresses functional CRF1; endogenous in cells; host or cells: Y-79 human retinoblastoma cells
T1 sequence (P34998 24-415): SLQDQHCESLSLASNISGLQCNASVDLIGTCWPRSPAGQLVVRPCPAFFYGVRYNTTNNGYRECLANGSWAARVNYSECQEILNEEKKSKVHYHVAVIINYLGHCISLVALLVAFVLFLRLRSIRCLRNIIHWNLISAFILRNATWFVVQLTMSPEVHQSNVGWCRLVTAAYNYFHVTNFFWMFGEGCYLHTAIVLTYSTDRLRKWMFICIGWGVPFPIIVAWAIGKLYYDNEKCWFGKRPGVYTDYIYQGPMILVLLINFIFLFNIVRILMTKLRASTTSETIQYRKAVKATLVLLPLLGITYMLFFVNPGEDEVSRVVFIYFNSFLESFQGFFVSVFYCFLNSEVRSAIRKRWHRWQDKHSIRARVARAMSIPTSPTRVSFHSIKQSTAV
Kind of assay: CRF1 assessment of cAMP (HTRF cAMP assay) in Y-79 cells, antagonist mode. In kind it is cell-based. As to conditions: Y79 cells; for IC50: CRF1 cAMP screening, against agonist; for inhibition at 0.3 µM: 300 nM pepducin against agonist dose response, read-out: % Inhibition (± SD). An excerpt: HTRF (homogeneous time resolved fluorescence) is a technology developed by Cisbio Bioassays based on TR-FRET (time-resolved fluorescence resonance energy transfer). Cisbio Bioassays has developed a wide selection of HTRF-based assays compatible with whole cells, thereby enabling functional assays run under more physiological conditions. cAMP kits are based on a competitive immunoassay using cryptate-labeled anti-cAMP antibody and d2-labeled cAMP. This assay allows the measurement of increase in intracellular cAMP upon Gs-coupled receptor activation as well as decrease in forskolin stimulated increase in cAMP upon Gi-coupled receptor activation. Cells expressing CRF1 endogenously or via transfection can be used to assess compound pharmacology using cAMP assays as a means to measure the activity of adenylyl cyclase resulting from CRF1 activation or inhibition.
An example of the use of the cAMP assay can be assessing CRF activation of CRF1 in Y-79, a human retinoblastoma cell line which endogenously expresses functional CRF1. Y-79 cells were seeded into 96-well half area black plates at 30K/well in Hank's balanced salt solution with 50 mM HEPES, 0.1% BSA, 200 uM IBMX. Compounds to be tested for agonist activity were added to cells, incubated for 30 minutes at 37 degrees C. and assayed for cAMP concentration. To test for antagonist activity, compounds to be tested were added to cells, followed by the addition of agonist at an experimentally determined optimal concentration, generally the EC80. Plates were incubated for 30 minutes at 37 degrees C. and assayed for cAMP. To determine concentration of cAMP in each well, d2-labeled cAMP in Conjugate/Lysis buffer was added to wells. This addition lysed the cells and input a known concentration of labeled cAMP. This was followed by the addition of anti-cAMP antibody conjugated to cryptate. FRET occurs when cryptate-labeled antibody binds to d2-labeled cAMP. Therefore, the specific signal is inversely proportional to the concentration of cAMP in the sample. Conversion of signal to concentration of cAMP in the well was accomplished by comparing the FRET signal of sample to a standard curve generated using known concentrations of cAMP.

For `CCCCCCCCCCCCCCCC(=O)NCC(=O)N[C@@H](CO)C(=O)N[C@H](C(=O)N[C@@H](CC(=O)O)C(=O)N[C@@H](CCCNC(=N)N)C(=O)N[C@@H](CC(C)C)C(=O)N[C@@H](CCCNC(=N)N)C(=O)N[C@@H](CCCCN)C(=O)N[C@@H](Cc1c[nH]c2ccccc12)C(=O)N[C@@H](CCSC)C(=O)N[C@@H](C)C(=O)N[C@H](C(N)=O)[C@@H](C)CC)[C@@H](C)O` [Compound 38] (Palmitoyl-GSTDRLRKWMAI-NH2), the IC50 fell in the range of 1 to 5 µM and the inhibition at 0.3 µM worked out at 60 ± 8%.

`CCCCCCCCCCCCCCCC(=O)N[C@H](C(=O)N[C@@H](CC(=O)O)C(=O)N[C@@H](C)C(=O)N[C@@H](CC(C)C)C(=O)N[C@@H](CCCNC(=N)N)C(=O)N[C@@H](CCCCN)C(=O)N[C@@H](Cc1c[nH]c2ccccc12)C(=O)N[C@@H](CCSC)C(=O)N[C@@H](Cc1ccccc1)C(=O)N[C@H](C(N)=O)[C@@H](C)CC)[C@@H](C)O` [Compound 46] (Palmitoyl-TDALRKWMFI-NH2): the half-maximal inhibitory concentration (IC50) is more than 10 µM and the inhibition at 0.3 µM is 58%.

Take `CCCCCCCCCCCCCCCC(=O)N[C@@H](CO)C(=O)N[C@H](C(=O)N[C@@H](CC(=O)O)C(=O)N[C@@H](CCCNC(=N)N)C(=O)N[C@@H](CC(C)C)C(=O)N[C@@H](CCCNC(=N)N)C(=O)N[C@@H](CCCCN)C(=O)N[C@@H](Cc1c[nH]c2ccccc12)C(=O)N[C@@H](CCSC)C(=O)N[C@@H](Cc1ccccc1)C(=O)N[C@H](C(N)=O)[C@@H](C)CC)[C@@H](C)O` [Compound 33] (Palmitoyl-STDRLRKWMFI-NH2): the IC50 lay in the range of 1 to 5 µM and the inhibition at 0.3 µM amounted to 36 ± 9%.

In the case of `CCCCCCCCCCCCCCCC(=O)N[C@H](C(=O)N[C@@H](C)C(=O)N[C@@H](CCCNC(=N)N)C(=O)N[C@@H](CC(C)C)C(=O)N[C@@H](CCCNC(=N)N)C(=O)N[C@@H](CCCCN)C(=O)N[C@@H](Cc1c[nH]c2ccccc12)C(=O)N[C@@H](CCSC)C(=O)N[C@@H](Cc1ccccc1)C(=O)N[C@H](C(N)=O)[C@@H](C)CC)[C@@H](C)O` [Compound 45] (Palmitoyl-TARLRKWMFI-NH2), the half-maximal inhibitory concentration (IC50) is more than 10 µM and the inhibition at 0.3 µM was 70%.

Take `CCCCCCCCCCCCCCCC(=O)N[C@H](C(=O)N[C@@H](CC(=O)O)C(=O)N[C@@H](CCCNC(=N)N)C(=O)N[C@@H](CC(C)C)C(=O)N[C@@H](CCCNC(=N)N)C(=O)N[C@@H](C)C(=O)N[C@@H](Cc1c[nH]c2ccccc12)C(=O)N[C@@H](CCSC)C(=O)N[C@@H](Cc1ccccc1)C(=O)N[C@H](C(N)=O)[C@@H](C)CC)[C@@H](C)O` [Compound 49] (Palmitoyl-TDRLRAWMFI-NH2): the IC50 was more than 10 µM and the inhibition at 0.3 µM is 42%.

For the compound `CCCCCCCCCCCCCCCC(=O)N[C@@H](CC(=O)O)C(=O)N[C@@H](CCCNC(=N)N)C(=O)N[C@@H](CC(C)C)C(=O)N[C@@H](CCCNC(=N)N)C(=O)N[C@@H](CCCCN)C(=O)N[C@@H](Cc1c[nH]c2ccccc12)C(=O)N[C@@H](CCSC)C(=O)N[C@@H](Cc1ccccc1)C(=O)N[C@H](C(N)=O)[C@@H](C)CC` [Compound 31] (Palmitoyl-DRLRKWMFI-NH2), the half-maximal inhibitory concentration (IC50) lay within 1 to 5 µM and the inhibition at 0.3 µM worked out at 30 ± 17%.

On to `CCCCCCCCCCCCCCCC(=O)N[C@@H](CCCNC(=N)N)C(=O)N[C@@H](CC(C)C)C(=O)N[C@@H](CCCNC(=N)N)C(=O)N[C@@H](CCCCN)C(=O)N[C@@H](Cc1c[nH]c2ccccc12)C(=O)N[C@@H](CCSC)C(=O)N[C@@H](Cc1ccccc1)C(=O)N[C@H](C(N)=O)[C@@H](C)CC` [Compound 30] (Palmitoyl-RLRKWMFI-NH2), for which the IC50 lay in the range of 1 to 5 µM and the inhibition at 0.3 µM was 39 ± 7%.

As for `CCCCCCCCCCCCCCCC(=O)N[C@H](C(=O)N[C@@H](CC(=O)O)C(=O)N[C@@H](CCCNC(=N)N)C(=O)N[C@@H](CC(C)C)C(=O)N[C@@H](CCCNC(=N)N)C(=O)N[C@@H](CCCCN)C(=O)N[C@@H](Cc1c[nH]c2ccccc12)C(=O)N[C@@H](CCSC)C(=O)N[C@@H](Cc1ccccc1)C(=O)N[C@H](C(N)=O)[C@@H](C)CC)[C@@H](C)O` [Compound 32, Pal-TDRLRKWMFI-amide] (Palmitoyl-TDRLRKWMFI-NH2), the half-inhibitory concentration (IC50) was in the range of 0.501 to 1 µM and the inhibition at 0.3 µM is 53 ± 9%.

Regarding `CCCCCCCCCCCCCCCC(=O)N[C@@H](Cc1ccc(O)cc1)C(=O)N[C@@H](CO)C(=O)N[C@H](C(=O)N[C@@H](CC(=O)O)C(=O)N[C@@H](CCCNC(=N)N)C(=O)N[C@@H](CC(C)C)C(=O)N[C@@H](CCCNC(=N)N)C(=O)N[C@@H](CCCCN)C(=O)N[C@@H](Cc1c[nH]c2ccccc12)C(=O)N[C@@H](CCSC)C(=O)N[C@@H](Cc1ccccc1)C(=O)N[C@H](C(N)=O)[C@@H](C)CC)[C@@H](C)O` [Compound 34] (Palmitoyl-YSTDRLRKWMFI-NH2), the half-maximal inhibitory concentration (IC50) lay within 0.501 to 1 µM and the inhibition at 0.3 µM came out at 21 ± 5%.

On to `CCCCCCCCCCCCCCCC(=O)N[C@@H](CCCNC(=N)N)C(=O)N[C@@H](CC(C)C)C(=O)N[C@@H](CCCNC(=N)N)C(=O)N[C@@H](CCCCN)C(=O)N[C@@H](Cc1c[nH]c2ccccc12)C(=O)N[C@@H](CCSC)C(=O)N[C@@H](C)C(=O)N[C@H](C(N)=O)[C@@H](C)CC` [Compound 41] (Palmitoyl-RLRKWMAI-NH2), for which the IC50 is 0.501 to 1 µM and the inhibition at 0.3 µM was 40%.

`CCCCCCCCCCCCCCCC(=O)N[C@@H](CC(=O)O)C(=O)N[C@@H](CCCNC(=N)N)C(=O)N[C@@H](CC(C)C)C(=O)N[C@@H](CCCNC(=N)N)C(=O)N[C@@H](CCCCN)C(=O)N[C@@H](Cc1c[nH]c2ccccc12)C(=O)N[C@@H](CCSC)C(=O)N[C@@H](C)C(=O)N[C@H](C(N)=O)[C@@H](C)CC` [Compound 42] (Palmitoyl-DRLRKWMAI-NH2): the IC50 is 5 to 10 µM and the inhibition at 0.3 µM came to 65%.

Turning to `CCCCCCCCCCCCCCCC(=O)N[C@H](C(=O)N[C@@H](CC(=O)O)C(=O)N[C@@H](CCCNC(=N)N)C(=O)N[C@@H](CC(C)C)C(=O)N[C@@H](CCCNC(=N)N)C(=O)N[C@@H](CCCCN)C(=O)N[C@@H](Cc1c[nH]c2ccccc12)C(=O)N[C@@H](CCCC)C(=O)N[C@@H](Cc1ccccc1)C(=O)N[C@H](C(N)=O)[C@@H](C)CC)[C@@H](C)O` [Compound 54] (Palmitoyl-TDRLRKW[Nle]FI-NH2), the inhibition at 0.3 µM is 55 ± 7%.

Consider `CCCCCCCCCCCCCCCC(=O)NCC(=O)N[C@@H](CO)C(=O)N[C@@H](CCCNC(=N)N)C(=O)N[C@@H](CC(C)C)C(=O)N[C@@H](CCCNC(=N)N)C(=O)N[C@@H](CCCCN)C(=O)N[C@@H](Cc1c[nH]c2ccccc12)C(=O)N[C@@H](CCSC)C(=O)N[C@@H](Cc1ccccc1)C(=O)N[C@H](C(N)=O)[C@@H](C)CC` [Compound 28] (Palmitoyl-GSRLRKWMFI-NH2), for which the IC50 fell in the range of 1 to 5 µM and the inhibition at 0.3 µM was 52 ± 5%.

Consider `CCCCCCCCCCCCCCCC(=O)NCC(=O)N[C@@H](CO)C(=O)N[C@H](C(=O)N[C@@H](CC(=O)O)C(=O)N[C@@H](CCCNC(=N)N)C(=O)N[C@@H](CC(C)C)C(=O)N[C@@H](CCCNC(=N)N)C(=O)N[C@@H](CCCCN)C(=O)N[C@@H](Cc1c[nH]c2ccccc12)C(=O)N[C@@H](CCSC)C(=O)N[C@@H](Cc1ccccc1)C(=O)N[C@@H](C)C(N)=O)[C@@H](C)O` [Compound 37] (Palmitoyl-GSTDRLRKWMFA-NH2), for which the half-maximal inhibitory concentration (IC50) was in the range of 1 to 5 µM and the inhibition at 0.3 µM was 45 ± 19%.

As to `CCCCCCCCCCCCCCCC(=O)NCC(=O)N[C@@H](CO)C(=O)N[C@H](C(=O)N[C@@H](CC(=O)O)C(=O)N[C@@H](CCCNC(=N)N)C(=O)N[C@@H](CC(C)C)C(=O)N[C@@H](CCCNC(=N)N)C(=O)N[C@@H](CCCCN)C(=O)N[C@@H](C)C(=O)N[C@@H](CCSC)C(=O)N[C@@H](Cc1ccccc1)C(=O)N[C@H](C(N)=O)[C@@H](C)CC)[C@@H](C)O` [Compound 40] (Palmitoyl-GSTDRLRKAMFI-NH2), the IC50 is 0.501 to 1 µM and the inhibition at 0.3 µM was 61 ± 20%.

`CCCCCCCCCCCCCCCC(=O)N[C@H](C(=O)N[C@@H](CC(=O)O)C(=O)N[C@@H](CCCNC(=N)N)C(=O)N[C@@H](CC(C)C)C(=O)N[C@@H](CCCNC(=N)N)C(=O)N[C@@H](CCCCN)C(=O)N[C@@H](Cc1c[nH]c2ccccc12)C(=O)N[C@@H](CCSC)C(=O)N[C@@H](C)C(=O)N[C@H](C(N)=O)[C@@H](C)CC)[C@@H](C)O` [Compound 43] (Palmitoyl-TDRLRKWMAI-NH2): the 50% inhibitory concentration (IC50) was more than 10 µM and the inhibition at 0.3 µM came to 48%.

Usually IC50 stands for the point on the concentration scale where inhibition reaches its midpoint. Read a high IC50 as lower potency. For orientation: inhibition means the percentage by which the read-out fell short of the control.
